# Measured values as given in publication PMC7766124, “Improved Cell Selectivity of Pseudin-2 via Substitution in the Leucine-Zipper Motif: In Vitro and In Vivo Antifungal Activity” (Antibiotics, 2020).
# Where two headings read alike, the source gives them in different places. No end group written: not given here.
# Assays:
# A. flavus = type: cell-based, Aspergillus flavus (KCTC 6905); details: 36 h
# Source text: (§1) Aspergillus flavus (KCTC 6905), A. fumigatus (KCTC 6145), Fusarium moniliforme (KCTC 6149), F. oxysporum (KCTC 16909), C. albicans (KCTC 7270), C. krusei (CCARM 14017), C. parapsilosis (CCARM 14016), C. tropicalis (KCTC 7221), and T. beigelii (KCTC 7707) were obtained from the Korea Collection for Type Cultures (KCTC) and Culture Collection of Antimicrobial Resistant Microbes (CCARM). Mold and yeast fungi were pre-grown on potato dextrose (PD) and yeast extract peptone dextrose (YPD) agars, respectively.
# (§2) Antifungal activity of peptides was performed by microtiter plate assays. Fungal conidia from four-day-old molds were collected using 0.08% Triton X-100 (v/v), and pre-cultivated yeast cells were adjusted to 2 × 10^4 spores/mL in 10 mM sodium phosphate buffer (SP, pH 7.2) or 10 mM 2-(N-morpholino)ethanesulfonic acid (MES) buffer (pH 5.5) supplemented with 20% culture medium, followed by addition to peptide solutions (0.25, 0.5, 1, 1.5, 2, 4, 6, 8, 12, 16, 32, 48, and 64 µM) in 96-well microtiter plates. After incubation for 36 h at 28 °C, the hyphal growth of conidia and the proliferation of yeast cells were observed under a light microscope. All assays were performed in triplicate. The MIC values were defined as the lowest concentration of samples that reduced fungal germination (for mold) or cell proliferation (for yeast) by more than 90% [34].
# A. fumigatus = type: cell-based, A. fumigatus (KCTC 6145); details: 36 h
# Source text: as §1, §2
# F. oxysporum = type: cell-based, F. oxysporum (KCTC 16909); details: 36 h
# Source text: as §1, §2
# C. albicans = type: cell-based, C. albicans (KCTC 7270); details: 36 h
# Source text: as §1, §2
# C. krusei = type: cell-based, C. krusei (CCARM 14017); details: 36 h
# Source text: as §1, §2
# C. parapsilosis = type: cell-based, C. parapsilosis (CCARM 14016); details: 36 h
# Source text: as §1, §2
# C. tropicalis [1] = type: cell-based, C. tropicalis (KCTC 7221); details: 36 h
# Source text: as §1, §2
# [2] = Calcein leakage from fungus-mimic artificial vesicles; details: fungus-mimic PC/PE/PI/ergosterol vesicles, 20 μM lipid; peptide/lipid molar ratio 0.05; 100% = 0.03% Triton X-100; three independent experiments
# Method: (§3) The permeability of peptides in calcein-entrapped artificial liposomes was assayed by measuring calcein leakage. The desired mixtures of lipids (PC/PE/PI/ergosterol, 5:4:1:2 and PC/CH/SM, 2:1:1, weight ratio) were dissolved in chloroform at 10 mg/mL, dried in a glass tube under nitrogen, and then lyophilized overnight to remove residual solvent. The dried lipid films were resuspended in 1 mL of dye solution (80 mM calcein, 10 mM HEPES buffer, pH 7.2) at 50 °C and vortexed, followed by freeze-thawing for nine cycles and extrusion with polycarbonate filters (0.2-μm pore-size) using an Avanti Mini-Extruder (Avanti Polar Lipids Inc., Alabaster, AL, USA). Free calcein was removed using PD-10 desalting columns (GE Healthcare Life Science, Seoul, Korea). Calcein-entrapped vesicles of 20 μM lipids were incubated with peptides at concentrations of […], 0.02, 0.05, and 0.1 molar ratio (peptide/lipid) and the fluorescence was assessed at 480 (Ex) and 520 (Em) nm using a microtiter SpectraMax M5 reader (Molecular Devices). Complete (100%) release was achieved by the addition of 0.03% Triton X-100 (v/v).
# [3] = Calcein leakage from mammalian-mimic artificial vesicles; details: mammalian-mimic PC/CH/SM vesicles, 20 μM lipid; peptide/lipid molar ratio 0.1; 100% = 0.03% Triton X-100
# Method: as §3
# mouse erythrocytes = assay: Hemolytic assay; type: cell-based; details: 64 µM peptide, 8% (v/v) mRBCs, 37 °C, 2 h (method) / 4 h (figure legend)
# Method: Mouse blood was collected into sodium heparin-coated tubes (BD Vacutainer; BD Diagnostics, Oxford, UK). The mRBCs were obtained by centrifugation (800× g, 10 min) and washing with PBS. The washed mRBCs were added to a final concentration of 8% (v/v) in 64 µM peptide solution, followed by incubation for 2 h at 37 °C. After centrifugation, each tube was digitally recorded.
# C. tropicalis [4] = assay: C. tropicalis skin infection mouse model; type: in vivo, BALB/C female mice
# Method: All animal experiments and procedures were performed with the approval of the Institutional Animal Care and Use Committee (IACUC) of Sunchon National University, Korea (SCNU IACUC-2019-10). BALB/C female mice (six weeks old) were obtained from Koatech Co. (Pyongtaek, Gyeonggido, Korea) and divided into three groups (n = 4): control, pseudin-2, and P2-LZ4 groups. The skin on the back of each mouse was shaved 1 h before infection, and the mice were anesthetized by inhalation of 5% (induction) and 2% (maintenance) isoflurane in pure oxygen. Mice were then subjected to subcutaneous infection with 100 µL C. tropicalis (10^7 cells/mL) by injection into the dorsum of each mouse. At 24 h after infection, 100 µL PBS, pseudin-2 (0.1 mg/mL), or P2-LZ4 (0.1 mg/mL) was injected into the same site. At four days after peptide injection, mice were euthanized by CO2 inhalation, and the infected skin tissues were excised, fixed in 4% paraformaldehyde, embedded in paraffin, stained with H&E, and observed by light microscopy.
# C. tropicalis cells = assay: SYTOX Green uptake (membrane permeability); type: cell-based; details: SP buffer pH 7.2, 0.5 μM SYTOX Green, peptides 1-64 µM, monitored 30 min
# Method: C. tropicalis cells pre-grown at 28 °C were washed and suspended (2 × 10^6 cells/mL) in SP buffer (pH 7.2). The cells were pre-incubated with SYTOX Green (final concentration of 0.5 μM) for 15 min in the dark, followed by adding two-fold serial dilutions of peptides at concentrations of 1 to 64 µM. The fluorescence intensity was monitored for 30 min at 485 (Ex) and 520 (Em) nm using a microtiter SpectraMax M5 reader (Molecular Devices, San Jose, CA, USA).
substance,measurement,setting,value
GLNALKKVFQGIHEAIKLINNHVQ-NH2 [Pseudin-2],MIC,A. flavus; pH 5.5,16 µM
same,MIC,A. flavus; pH 7.2,64 µM
same,MIC,A. fumigatus; pH 5.5,24 µM
same,MIC,A. fumigatus; pH 7.2,64 µM
same,MIC,F. oxysporum; pH 5.5,16 µM
same,MIC,F. oxysporum; pH 7.2,4 µM
same,MIC,C. albicans; pH 5.5,32 µM
same,MIC,C. albicans; pH 7.2,12 µM
same,MIC,C. krusei; pH 5.5,8 (8) µM
same,MIC,C. krusei; pH 7.2,8 (8) µM
same,MIC,C. parapsilosis; pH 5.5,>64 (>64) µM
same,MIC,C. parapsilosis; pH 7.2,>64 (>64) µM
same,MIC,C. tropicalis [1]; pH 5.5,2 µM
same,MIC,C. tropicalis [1]; pH 7.2,4 µM
same,leakage of calcein,[2],80.1%
same,calcein efflux,[3],significant dye leakage
same,"hemolytic effects (hemoglobin release, by visualization)",mouse erythrocytes,did not release hemoglobin
same,histological evaluation of skin tissues (H&E),"C. tropicalis [4]; 100 µL of 0.1 mg/mL peptide s.c. 24 h after infection, tissues taken four days after peptide injection",able to recover from histological lesions
same,skin lesions (swelling and redness in the dorsal skin),"C. tropicalis [4]; 100 µL of 0.1 mg/mL peptide s.c. 24 h after s.c. infection, monitored seven days, n = 4",reduced swelling and redness
same,SYTOX Green fluorescence intensity,C. tropicalis cells,"gradual, concentration-dependent increases in fluorescence intensity"
